# Like-named read-outs stand apart in the source and are kept apart here.
# Columns and labels:
# CYP3A4 [1] = assay type: in vivo; conditions: oral TRZ 1 mg/kg; hCYP3A mice fed HCD versus ND
# [2] = assay type: in vivo, hCYP3A mice; conditions: mean ± SD, n = 4
# CYP3A4 [3] = assay: Plasma 4β-OH cholesterol as biomarker of CYP3A4 activity in mice fed ND or HCD; assay type: in vivo; conditions: hCYP3A mice
# CYP3A4 [4] = assay: Inhibition of TRZ hydroxylation by KCZ in pooled liver microsomes; assay type: biochemical, hCYP3A mice; conditions: 0.01, 0.1 and 1 μM KCZ; pooled liver microsomes of ND and HCD mice
# CYP3A4 [5] = assay: In vivo DDI study: KCZ pretreatment before oral TRZ in mice fed ND or HCD; parameters: species or system hCYP3A mice; conditions: for Percentage of decline in AUCRα-OH: 40 mg/kg KCZ oral 15 min before oral TRZ 1 mg/kg, versus vehicle
# [6] = hCYP3A mice fed CA-diet (CE-2 + 0.5% CA) for 1 week
# [7] = hCYP3A mice fed ND (CE-2) for 1 week
# [8] = both ND and HCD mice, 40 mg/kg KCZ oral, TRZ 1 mg/kg oral
smiles,measurement,setting,value
"Cc1nnc2n1-c1ccc(Cl)cc1C(c1ccccc1Cl)=NC2 [TRZ, triazolam, reference compound]",Plasma concentrations and AUC values in HCD mice compared with ND mice,CYP3A4 [1],lower
"C[C@H](CCC(=O)O)[C@H]1CC[C@H]2[C@@H]3[C@H](O)C[C@@H]4C[C@H](O)CC[C@]4(C)[C@H]3C[C@H](O)[C@]12C [CA, cholic acid]",Plasma concentration,[2]; [6],1.35 ± 1.869 µg/mL
same,Plasma concentration,[2]; [7],0.312 ± 0.243 µg/mL
"CC(C)CCC[C@@H](C)[C@H]1CC[C@H]2[C@@H]3CC=C4[C@@H](O)[C@@H](O)CC[C@]4(C)[C@H]3CC[C@]12C [4β‐OH cholesterol, 4β‐Hydroxy (4β‐OH) cholesterol]","Plasma concentration ratio (4β-OH cholesterol/cholesterol), HCD versus ND",CYP3A4 [3],not significantly different
same,Plasma level in mice fed HCD compared with mice fed ND,CYP3A4 [3]; HCD versus ND,significantly higher
same,Increase of plasma level by HCD,"CYP3A4 [3]; HCD versus ND, Figure S4A",about twofold
"CC(C)CCC[C@@H](C)[C@H]1CC[C@H]2[C@@H]3CC=C4C[C@@H](O)CC[C@]4(C)[C@H]3CC[C@]12C [Cholesterol, cholesterol]",Plasma concentration,[2]; [6],2250 ± 336 µg/mL
same,Plasma concentration,[2]; [7],1361 ± 152 µg/mL
"CC(=O)N1CCN(c2ccc(OCC3COC(Cn4ccnc4)(c4ccc(Cl)cc4Cl)O3)cc2)CC1 (stereo not drawn) [KCZ, ketoconazole]",Effect on microsomal activity of TRZ hydroxylation in liver,CYP3A4 [4],inhibited
same,Percentage of decline in AUCRα-OH,CYP3A4 [5]; HCD mice,46%
same,Percentage of decline in AUCRα-OH,CYP3A4 [5]; ND mice,49%
same,Effect of pretreatment on plasma concentrations of TRZ,CYP3A4 [5]; [8],tended to increase
same,Effect of pretreatment on plasma concentrations of α-OH TRZ,CYP3A4 [5]; [8],decrease
"Cc1nnc2n1-c1ccc(Cl)cc1C(c1ccccc1Cl)=NC2O (stereo not drawn) [4‐OH TRZ, 4‐hydroxy triazolam]",Plasma concentrations and AUC values in HCD mice compared with ND mice,CYP3A4 [1],lower
"OCc1nnc2n1-c1ccc(Cl)cc1C(c1ccccc1Cl)=NC2 [α‐OH TRZ, α‐hydroxy triazolam]",Plasma concentrations and AUC values in HCD mice compared with ND mice,CYP3A4 [1],lower

# From article PMC11033495 (Pharmacology Research & Perspectives, 2024)
